Measurements published in patent USRE45612E1, “Corrosion inhibitor composition applicable for aluminum and steel protection and procedure” (MD FIFTH WARD PROPERTIES, INC., priority 2001, dated 2015).

Assays:
[1] = Salt spray exposure (ASTM B-117) of scribed aircraft primers containing the inhibitor pigment; conditions: 2000 hours salt spray, scribe area
Method: The test was performed in a typical two component aircraft primer formulation, specifically recommended for aluminum protection. […] By visual examination of their physical state at the end of the test period, the coatings' corrosion inhibitor performance, considered directly proportional to the tested pigment components' corrosion inhibitive activity, was qualified. The scribed area was especially examined and the absence or presence of corrosion products, respectively, was interpreted as display of, or absence of, the respective corrosion inhibitor pigment's “throw power”. It will be apparent that the “throw power” is the discriminative characteristic of effective corrosion inhibitor pigments.

[2] = Salt spray exposure (ASTM B-117) of scribed coil primers, service life of coating; conditions: on galvanized steel, relative to Sr-doped amorphous silica
Method: Steel Co.), at 0.6-0.7 mil dry film thickness, aged for at least 2 (two) days at room temperature, scribed and subsequently subjected to salt spray exposure (according to ASTM B-117). The scribes were applied in the typical cross form, and, in order to cut through the protective galvanic zinc coating from the area of the scribes, at appropriate depth. During salt spray exposure, the coatings' physical state was assessed periodically by visual examination. […] Service life of a coating is considered directly proportional to the related pigments' or additives' corrosion inhibitor performance, which is conveniently qualified by Ei, the Inhibitor Efficiency Index, defined as: […]

[3] = Solubility in water of the pigment; format: physicochemical
[4] = pH of saturated extract / leachate of the pigment; format: physicochemical

Sc1nnc(S)s1 [DMTD, 2,5-dimercapto-1,3,4 thiadiazole]
"Throw Power" Observed [1]: displayed throw power

C1CCC(NC2CCCCC2)CC1.S=c1[nH]c(=S)[nH]c(=S)[nH]1 [Example 7, Di-cyclohexyl mono-ammonium salt of trithiocyanuric acid]
extension of service life of coil coatings over Sr-doped amorphous silica [2]: 200%

[S-]c1nnc(S)s1.[S-]c1nnc(S)s1.[Zn+2] [Example 1, Zn(DMTD)2]
solubility in water, at 24° C. [3]: 0.4 mg/mL | pH (saturated extract) [4]: 4.5-5.0
